Where two headings read alike, the source gives them in different places.
What was measured:
5HT2B receptors = molecular target: T1, 5HT2B receptors (Homo sapiens, UniProt P41595); assay: Human 5-HT2B functional high throughput screening assay in CHO-K1 cells (calcium flux); format: cell-based; settings: for EC50: CHO-K1 cells, calcium flux
T1 construct: expressed in transfected cells; host or cells: CHO-K1 cells
Procedure, shortened: (§1)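 Serum-starved CHO-K1 cells carrying the receptor; Ca4 dye, 60 min RT. Test compound added after a 10 s baseline, fluorescence followed for 3 min. EC50 from 4-parameter fit; Emax given as % of serotonin effect.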

5HT2C receptors = molecular target: T2, 5HT2C receptors (Homo sapiens, UniProt P28335); assay: Human 5-HT2C functional high throughput screening assay in CHO-K1 cells (calcium flux); format: cell-based; parameters: expressed in transfected cells; host or cells: CHO-K1 cells; settings: for Emax: CHO-K1; for EC50: CHO-K1 cells, calcium flux
T2 sequence (P28335 33-458): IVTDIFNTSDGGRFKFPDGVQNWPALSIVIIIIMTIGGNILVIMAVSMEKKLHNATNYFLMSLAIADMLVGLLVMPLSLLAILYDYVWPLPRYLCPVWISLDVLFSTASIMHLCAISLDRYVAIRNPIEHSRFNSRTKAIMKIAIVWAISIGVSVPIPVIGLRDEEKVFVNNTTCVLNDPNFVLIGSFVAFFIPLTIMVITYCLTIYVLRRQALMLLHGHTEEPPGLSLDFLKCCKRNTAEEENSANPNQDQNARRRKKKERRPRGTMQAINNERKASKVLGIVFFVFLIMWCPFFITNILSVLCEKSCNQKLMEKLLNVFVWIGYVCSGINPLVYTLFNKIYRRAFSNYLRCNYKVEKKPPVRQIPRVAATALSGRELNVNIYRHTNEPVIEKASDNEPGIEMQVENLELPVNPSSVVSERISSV
Procedure, shortened: as §1

[1] = 5-HT2C, maximum functional response as percentage relative to the effect of serotonin
[2] = 5-HT2B agonist activity, read-out: EC50
[3] = CHO-K1, 5-HT2B, maximum functional response as percentage relative to the effect of serotonin, read-out: Emax
[4] = 5-HT2C agonist activity, read-out: EC50
[5] = 5-HT2C, maximum functional response as percentage relative to the effect of serotonin, read-out: Emax
[6] = 5-HT2B, maximum functional response as percentage relative to the effect of serotonin

T1 sequence (P41595 whole entry): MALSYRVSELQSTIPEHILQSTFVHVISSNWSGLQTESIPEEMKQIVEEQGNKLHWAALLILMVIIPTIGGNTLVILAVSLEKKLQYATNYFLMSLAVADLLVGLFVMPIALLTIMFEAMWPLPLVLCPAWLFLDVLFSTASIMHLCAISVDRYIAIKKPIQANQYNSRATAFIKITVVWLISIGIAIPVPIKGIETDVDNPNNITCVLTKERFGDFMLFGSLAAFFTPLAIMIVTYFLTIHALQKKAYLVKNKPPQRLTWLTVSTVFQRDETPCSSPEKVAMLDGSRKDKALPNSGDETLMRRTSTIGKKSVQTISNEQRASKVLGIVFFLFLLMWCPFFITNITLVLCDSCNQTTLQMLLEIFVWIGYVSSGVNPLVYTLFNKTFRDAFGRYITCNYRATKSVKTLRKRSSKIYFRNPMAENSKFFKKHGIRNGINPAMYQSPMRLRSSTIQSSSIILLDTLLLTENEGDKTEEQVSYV

Row | EC50 (5HT2B receptors; [2]) | Emax (5HT2B receptors; [3]) | EC50 (5HT2C receptors; [4]) | Emax (5HT2C receptors; [5]) | Emax (5HT2B receptors; [6]) | Structure (SMILES) | Emax (5HT2B receptors; CHO-K1) | EC50 (5HT2B receptors; EC50, 5-HT2B agonist activity) | Emax (5HT2C receptors; [1]) | EC50 (5HT2C receptors; EC50, 5-HT2C agonist activity) | Emax (5HT2B receptors) | Emax (5HT2C receptors)
1 |  |  |  |  |  | O=S(=O)(c1ccc(Br)s1)N1Cc2cccnc2[C@@H]2CNC[C@H]2C1 (relative stereo) [Example 360, Trans-6-[(5-bromo-2-thienyl)sulfonyl]-5,6,7,7a,8,9,10,10a-octahydropyrido[3,2-c]pyrrolo[3,4-e]azepine] | 20% | 300 nM | 80% | 10 nM |  | 
2 |  |  |  |  |  | O=S(=O)(c1ccccc1F)N1Cc2cccnc2[C@@H]2CNC[C@H]2C1 (relative stereo) [Example 361, Trans-6-[(2-fluorophenyl)sulfonyl]-5,6,7,7a,8,9,10,10a-octahydropyrido[3,2-c]pyrrolo[3,4-e]azepine] | 80% | 300 nM | 80% | 100 nM |  | 
3 |  |  |  |  |  | O=S(=O)(c1ccccc1Cl)N1Cc2cccnc2[C@@H]2CNC[C@H]2C1 (relative stereo) [Example 362, Trans-6-[(2-chlorophenyl)sulfonyl]-5,6,7,7a,8,9,10,10a-octahydropyrido[3,2-c]pyrrolo[3,4-e]azepine] | 75% | 300 nM | 80% | 100 nM |  | 
4 | 1000 nM | 15% | 200 nM | 65% |  | Cc1cc(C)c(S(=O)(=O)N2Cc3cccnc3[C@@H]3CNC[C@H]3C2)c(C)c1 (relative stereo) [Example 363, Trans-6-(mesitylsulfonyl)-5,6,7,7a,8,9,10,10a-octahydropyrido[3,2-c]pyrrolo[3,4-e]azepine] |  |  |  |  |  | 
5 | 90 nM | 90% | 100 nM | 85% |  | O=S(=O)(c1ccccc1OC(F)(F)F)N1Cc2cccnc2[C@@H]2CNC[C@H]2C1 (relative stereo) [Example 364, Trans-6-{[2-(trifluoromethoxy)phenyl]sulfonyl}-5,6,7,7a,8,9,10,10a-octahydropyrido[3,2-c]pyrrolo[3,4-e]azepine] |  |  |  |  |  | 
6 | 800 nM | 30% | 500 nM | 80% |  | O=S(=O)(c1ccccc1C(F)(F)F)N1Cc2cccnc2[C@@H]2CNC[C@H]2C1 (relative stereo) [Example 365, Trans-6-{[2-(trifluoromethyl)phenyl]sulfonyl}-5,6,7,7a,8,9,10,10a-octahydropyrido[3,2-c]pyrrolo[3,4-e]azepine] |  |  |  |  |  | 
7 | 200 nM | 85% | 100 nM | 85% |  | O=S(=O)(c1cccc(OC(F)(F)F)c1)N1Cc2cccnc2[C@@H]2CNC[C@H]2C1 (relative stereo) [Example 366, Trans-6-{[3-(trifluoromethoxy)phenyl]sulfonyl}-5,6,7,7a,8,9,10,10a-octahydropyrido[3,2-c]pyrrolo[3,4-e]azepine] |  |  |  |  |  | 
8 | > 10000 nM |  | 20 nM | 90% | inactive | CC(O)c1cccc(-c2cccc3c2OCC[C@H]2CNC[C@H]32)c1 (relative stereo) [Example 367, 1-{3-[Trans-2,3,3a,4,5,10b-hexahydro-1H-[1]benzoxepino[4,5-c]pyrrol-7-yl]phenyl}ethanol] |  |  |  |  |  | 
9 |  |  |  |  |  | c1cncc(-c2cccc3c2OCC[C@H]2CNC[C@H]32)c1 (relative stereo) [Example 368, Trans-7-(pyridin-3-yl)-2,3,3a,4,5,10b-hexahydro-1H-[1]benzoxepino[4,5-c]pyrrole] | 20% | 1000 nM | 90% | 10 nM |  | 
10 | > 10000 nM |  | 600 nM | 95% | inactive | CNC(=O)c1ccc(-c2cccc3c2OCC[C@H]2CNC[C@H]32)cc1 (relative stereo) [Example 371, 4-[Trans-2,3,3a,4,5,10b-hexahydro-1H-[1]benzoxepino[4,5-c]pyrrol-7-yl]-N-methylbenzamide] |  |  |  |  |  | 
11 |  |  |  |  |  | Cc1ccc2c(c1)OCC[C@H]1CNC[C@H]21 (relative stereo) [Example 373, Trans-8-methyl-2,3,3a,4,5,10b-hexahydro-1H-[1]benzoxepino[4,5-c]pyrrole] | 70% | 50 nM | 100% | 6 nM |  | 
12 |  |  |  |  |  | Oc1cccc2c1[C@H]1CNC[C@@H]1CCO2 (relative stereo) [Example 374, Trans-2,3,3a,4,5,10b-hexahydro-1H-[1]benzoxepino[4,5-c]pyrrol-10-ol] | 30% | 700 nM | 90% | 80 nM |  | 
13 |  |  |  |  |  | CN1CC[C@@H]2CNC[C@H]2c2cccc(Cl)c21 (relative stereo) [Example 375, Trans-7-chloro-6-methyl-1,2,3,3a,4,5,6,10b-octahydropyrrolo[3,4-d][1]benzazepine] | 95% | 10 nM | 100% | 0.3 nM |  | 
14 |  |  |  |  |  | Clc1cccc2c1OCC[C@H]1CNC[C@H]21 (relative stereo) [Example 376, Trans-7-chloro-2,3,3a,4,5,10b-hexahydro-1H-[1]benzoxepino[4,5-c]pyrrole] | 70% | 200 nM | 90% | 0.2 nM |  | 
15 |  |  |  |  |  | Brc1cccc2c1[C@H]1CNC[C@@H]1CCO2 (relative stereo) [Example 377, Trans-10-bromo-2,3,3a,4,5,10b-hexahydro-1H-[1]benzoxepino[4,5-c]pyrrole] | 30% | 30 nM | 100% | 200 nM |  | 
16 | > 10000 nM |  | 0.4 nM | 105% | inactive | CC(C)c1cccc(-c2ccc3c(c2)C(=O)NC[C@@H]2CNC[C@@H]32)c1 (relative stereo) [Example 378, Trans-8-(3-isopropylphenyl)-2,3,3a,4,5,10b-hexahydropyrrolo[3,4-d][2]benzazepin-6(1H)-one] |  |  |  |  |  | 
17 | > 10000 nM |  | 5 nM | 100% | inactive | CC(C)c1cccc(-c2ccc3c(c2)C(=O)NC[C@@H]2CN(C)C[C@@H]32)c1 (relative stereo) [Example 379, Trans-8-(3-isopropylphenyl)-2-methyl-2,3,3a,4,5,10b-hexahydropyrrolo[3,4-d][2]benzazepin-6(1H)-one] |  |  |  |  |  | 
18 | > 10000 nM |  | 10 nM | 105% | inactive | CNC(=O)c1cccc(-c2ccc3c(c2)C(=O)NC[C@@H]2CNC[C@@H]32)c1 (relative stereo) [Example 381, N-Methyl-3-[trans-6-oxo-1,2,3,3a,4,5,6,10b-octahydropyrrolo[3,4-d][2]benzazepin-8-yl]benzamide] |  |  |  |  |  | 
19 | > 10000 nM |  | 90 nM | 100% | inactive | CNC(=O)c1cccc(-c2ccc3c(c2)C(=O)NC[C@@H]2CN(C)C[C@@H]32)c1 (relative stereo) [Example 382, N-Methyl-3-[Trans-2-methyl-6-oxo-1,2,3,3a,4,5,6,10b-octahydropyrrolo[3,4-d][2]benzazepin-8-yl]benzamide] |  |  |  |  |  | 
20 |  |  |  |  |  | Brc1cccc2c1OCC[C@H]1CNC[C@H]21 (relative stereo) [Example 383, Trans-7-bromo-2,3,3a,4,5,10b-hexahydro-1H-[1]benzoxepino[4,5-c]pyrrole] | 100% | 6 nM | 105% | 0.04 nM |  | 

Row | Structure (SMILES) | EC50 (5HT2B receptors; [2]) | Emax (5HT2B receptors; [3]) | EC50 (5HT2C receptors; [4]) | Emax (5HT2C receptors; [5]) | Emax (5HT2B receptors; [6]) | Emax (5HT2B receptors; CHO-K1) | EC50 (5HT2B receptors; EC50, 5-HT2B agonist activity) | Emax (5HT2C receptors; [1]) | EC50 (5HT2C receptors; EC50, 5-HT2C agonist activity) | Emax (5HT2B receptors) | Emax (5HT2C receptors)
21 | c1cc(-c2ccncc2)c2c(c1)[C@H]1CNC[C@@H]1CCO2 (relative stereo) [Example 369, Trans-7-(pyridin-4-yl)-2,3,3a,4,5,10b-hexahydro-1H-[1]benzoxepino[4,5-c]pyrrole] | > 10000 nM |  | 300 nM |  | inactive |  |  | 90% |  |  | 
22 | CN1C[C@@H]2CCOc3c(-c4cccnc4)cccc3[C@H]2C1 (relative stereo) [Example 370, Trans-2-methyl-7-(pyridin-3-yl)-2,3,3a,4,5,10b-hexahydro-1H-[1]benzoxepino[4,5-c]pyrrole] | > 10000 nM |  | 400 nM |  | inactive |  |  | 90% |  |  | 
23 | COc1cccc2c1OCC[C@H]1CNC[C@H]21 (relative stereo) [Example 372, Trans-7-methoxy-2,3,3a,4,5,10b-hexahydro-1H-[1]benzoxepino[4,5-c]pyrrole] | 200 nM |  | 1000 nM |  |  | 25% |  | 70% |  |  | 
24 | CC(C)COc1ccc2c(c1)C(=O)NC[C@@H]1CN(CCF)C[C@@H]21 (relative stereo) [Example 380, Trans-2-(2-fluoroethyl)-8-isobutoxy-2,3,3a,4,5,10b-hexahydropyrrolo[3,4-d][2]benzazepin-6(1H)-one] | > 10000 nM |  | 300 nM |  |  |  |  |  |  | inactive | 75%
